Measurements taken from publication PMC11650849, “Brain endothelial permeability, transport, and flow assessed over 10 orders of magnitude using the in situ brain perfusion technique” (Fluids and Barriers of the CNS, 2024).

Columns and labels:
[1] = Neutral fraction at pH 7.4 calculated from pKa; format: physicochemical; conditions: neutral fraction at perfusion fluid pH 7.40, calculated from pKa
[2] = rat, brain
[3] = rat, in vivo, pH 7.4
[4] = for Brain Kin: calculated at brain blood flow […] and rat serum fu; for Extraction (unbound) / Brain vascular extraction (total): calculated at brain blood flow […]; for Extraction (unbound): free drug; for Brain vascular extraction (total): with rat serum fu
[5] = ref Hansch et al. [123], Avdeef [46] or other sources, cited from earlier work; for Log Poct: octanol partition coefficient
[6] = rat in vivo measurements; cited from earlier work
[7] = rat in vivo measurements; cited from earlier work; remark: listed apart in the source

Compound | fn (%) [1] | half-life [2] | BBB PcS [3] | Log Pc [3] | Log PoS [3] | Pc [3] | PcS [3] | PoS [3] | Log Po [3] | Po [3] | Brain Kin [4] | Extraction (unbound) [4] | Brain vascular extraction (total) [4] | Log Poct [5] | Log Doct pH=7.4 [5] | fu,.p [6] | Brain Vu,br [7]
Fc1ccc([C@@H]2CCNC[C@H]2COc2ccc3c(c2)OCO3)cc1 [Paroxetine] | 0.32% | 83 min | 0.12 ± 0.02 mL/s/g | −2.91 | 1.59 | 12300 nm/s | 0.12 mL/s/g | 39.0 mL/s/g | −0.41 | 0.39 cm/s | 0.00164 mL/s/g | 99.4% | 7.4% | 3.50 | 1.00 | 0.015 | 852.0 mL/g
O=C1NC(=O)C(c2ccccc2)(c2ccccc2)N1 [Phenytoin] | 88.4% | 6.02 min |  | −3.58 | −1.53 | 2630 nm/s | 0.026 mL/s/g | 0.0298 mL/s/g | −3.53 | 0.000298 cm/s | 0.00364 mL/s/g | 66.6% | 15.2% | 2.24 | 2.17 | 0.15 | 12.7 mL/g
OC[C@H]1O[C@H](OC[C@H]2O[C@H](O[C@]3(CO)O[C@H](CO)[C@@H](O)[C@@H]3O)[C@H](O)[C@@H](O)[C@@H]2O)[C@H](O)[C@@H](O)[C@H]1O [Raffinose] | 100% | 405 min |  | −8.02 | −6.02 | 0.095 nm/s | 9.5e-07 mL/s/g | 9.5e-07 mL/s/g | −8.02 | 9.5e-09 cm/s | 9.5e-07 mL/s/g | 3.96E-05% | 3.96E-05% | −3.89 | −3.89 | 1.00 | 0.03 mL/g
COC(=O)[C@H]1[C@H]2C[C@@H]3c4[nH]c5cc(OC)ccc5c4CCN3C[C@H]2C[C@@H](OC(=O)c2cc(OC)c(OC)c(OC)c2)[C@@H]1OC [Reserpine] | 83.37% | 0.77 min |  | −3.05 | −0.97 | 8980 nm/s | 0.09 mL/s/g | 0.11 mL/s/g | −2.97 | 0.00108 cm/s | 0.00749 mL/s/g | 97.6% | 31.2% | 1.54 | 1.46 | 0.10 | 5 mL/g
Cn1nnc2c(C(N)=O)ncn2c1=O [Temozolamide] | 100% | 7.65 min |  | −4.79 | −2.79 | 163 nm/s | 0.0016 mL/s/g | 0.00163 mL/s/g | −4.79 | 1.63e-05 cm/s | 0.00464 mL/s/g | 4.3% | 5.3% | −1.04 | −1.04 | 0.80 | 1.05 mL/g
CCCC(CCC)C(=O)O [Valproic acid] | 0.16% | 1.86 min |  | −4.04 | 0.46 | 919 nm/s | 0.0092 mL/s/g | 2.92 mL/s/g | −1.54 | 0.0292 cm/s | 0.0016 mL/s/g | 31.8% | 6.7% | 2.71 | 0.21 | 0.18 | 1.43 mL/g
